Measurements: patent publication US5418135A, “Method of inhibiting binding of PDGF to a PDGF receptor by biosynthetic PDGF antagonists” (Creative BioMolecules, Inc., priority 1993, dated 1995)

System: PDGF receptor on human foreskin fibroblasts / NIH/3T3 cells
Assay: Inhibition assay: 3H-thymidine incorporation in cells stimulated with PDGF dimer
Type: cell-based
Method: One method includes the determination of ^3 H-thymidine incorporation in a cell which normally is induced to proliferate in the presence of PDGF, but which simultaneously is exposed to the prospective antagonist and to biologically active PDGF.
Human foreskin fibroblasts are grown from explants of newborn foreskin. NIH/3T3 cells were obtained from S. Aaronson (NCI). Cells are cultured in Dulbecco's modified Eagle's medium (DMEM) supplemented with 10% fetal bovine serum at 37° C. in an atmosphere of 10% CO2 and 90% air.
Cells are grown in 48-well plates to confluence and used for assay 3-4 days later. Different monomeric forms or fragments of PDGF monomers are added to the media, and after 18 hours 10 .xi.g PDGF AA dimer, AB dimer, or BB dimer and 2 .xi.Ci/ml ^3 H-thymidine are added. The cells are incubated an additional 2 hours and washed at 4° C. three times with phosphate-buffered saline (PBS) and five times with 5% trichloroacetic acid (TCA). TCA-insoluble materials are solubilized in 0.1N NaOH/0.1% SDS. The amount of incorporated ^3 H-thymidine is determined with a Beckman liquid scintillation counter.

A: Intact recombinant PDGF A chain monomer from E. coli, Cys residues pyridylethylated to prevent dimerization
inhibition of the proliferative effect of BB dimer (in words) (PDGF BB dimer as stimulus): inhibit the proliferative effect of BB dimer
IC50 (inhibition of PDGF dimer-induced 3H-thymidine incorporation, antagonist added 18 hours before PDGF dimer and 3H-thymidine, read-out: HALF-MAX INHIBITION): 100 nM
